Reference: patent US6407288B1, “Naphthylsalicylanilides as antimicrobial and antiinflammatory agents” (The Research Foundation of State University of New York, priority 2000, dated 2002)
Values after ≈ are worked out from the molar mass of the structure shown.

The molecules below were run on P. acnes 11828 (assay: MIC microdilution, gram positive). Conditions: Cutibacterium acnes, 11828; Table 1, Gram Positive.
Assay type: cell-based, Propionibacterium acnes
In short: (§1)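 Modified NCCLS broth microdilution: aerobes in full-strength BHI, anaerobes in half-strength BHI with yeast extract, hemin and menadione, each well given 10 µL of a ~1×10^8 CFU/mL inoculum. Drugs ranged 50–0.05 µg/assay, run in duplicate, incubated 24–48 h, anaerobically under 5% CO2/10% H2/N2 where needed. MIC was the lowest concentration with no visible growth.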

Row | Compound | MIC [µg/mL]
1 | O=C(c1ccc(-c2ccccc2)cc1)c1ccc(O)c(C(=O)Nc2cccc(C(F)(F)F)c2)c1 [BPAmF, reference compound] | 0.4 (≈ 0.867 µM)
2 | N#Cc1cccc(NC(=O)c2cc(C(=O)c3cccc4ccccc34)ccc2O)c1 [NA1mC] | 6.3 (≈ 16.1 µM)
3 | O=C(Nc1cccc(C(F)(F)F)c1)c1cc(C(=O)c2cccc3ccccc23)ccc1O [NA1mF] | 0.4 (≈ 0.919 µM)

What follows are molecules tested on P. acnes 6922 (assay: MIC microdilution, gram positive). Conditions: Cutibacterium acnes, 6922; Table 1, Gram Positive.
Assay type: cell-based, Propionibacterium acnes
In short: as §1

Row | Compound | MIC [µg/mL]
4 | O=C(c1ccc(-c2ccccc2)cc1)c1ccc(O)c(C(=O)Nc2cccc(C(F)(F)F)c2)c1 [BPAmF, reference compound] | 0.2 (≈ 0.433 µM)
5 | N#Cc1cccc(NC(=O)c2cc(C(=O)c3cccc4ccccc34)ccc2O)c1 [NA1mC] | 6.3 (≈ 16.1 µM)
6 | O=C(Nc1cccc(C(F)(F)F)c1)c1cc(C(=O)c2cccc3ccccc23)ccc1O [NA1mF] | 0.2 (≈ 0.459 µM)

What follows are molecules tested on S. aureus (assay: MIC microdilution, gram positive). Conditions: Staphylococcus aureus; Table 2, Gram Positive.
Assay type: cell-based, Staphlococcus aureus
In short: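 Broth microdilution (modified NCCLS M7-A4): BHI for aerobes, supplemented half-strength BHI under 5% CO2/10% H2/N2 for anaerobes; 10 μL of ~1×10^8 CFU/mL inoculum; drugs 50 to 0.05 μg/assay from DMSO stock. Duplicates incubated 24–48 h; MIC = lowest concentration without visible growth. Staphylococcus R: coagulase-negative clinical isolate 00-045-1209.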

Row | Compound | MIC [µg/mL]
7 | O=C(c1ccc(-c2ccccc2)cc1)c1ccc(O)c(C(=O)Nc2cccc(C(F)(F)F)c2)c1 [BPAmF, reference compound] | > 50

Same assay, conditions: Staphylococcus aureus; second Table 5 (Example 5)

Row | Compound | MIC [µg/mL]
8 | N#Cc1cccc(NC(=O)c2cc(C(=O)c3cccc4ccccc34)ccc2O)c1 [NA1mC] | 12.5 (≈ 31.9 µM)
9 | O=C(Nc1cccc(C(F)(F)F)c1)c1cc(C(=O)c2cccc3ccccc23)ccc1O [NA1mF] | 3.1 (≈ 7.12 µM)

Same assay, conditions: second Table 5 (Example 5)

Row | Compound | MIC S. aureus
10 | O=C(c1ccc(-c2ccccc2)cc1)c1ccc(O)c(C(=O)Nc2cccc(C(F)(F)F)c2)c1 [BPAmF, reference compound] | NE (NE indicates that the drug was not effective at a concentration >50 micrograms/ml)

The molecules below were run on S. sanguis (assay: MIC microdilution, gram positive). Conditions: Streptococcus; Table 1, Gram Positive.
Assay type: cell-based, Streptococcus sanguis
In short: as §1

Row | Compound | MIC [µg/mL]
11 | O=C(c1ccc(-c2ccccc2)cc1)c1ccc(O)c(C(=O)Nc2cccc(C(F)(F)F)c2)c1 [BPAmF, reference compound] | > 50
12 | N#Cc1cccc(NC(=O)c2cc(C(=O)c3cccc4ccccc34)ccc2O)c1 [NA1mC] | 6.3 (≈ 16.1 µM)
13 | O=C(Nc1cccc(C(F)(F)F)c1)c1cc(C(=O)c2cccc3ccccc23)ccc1O [NA1mF] | 0.8 (≈ 1.84 µM)

What follows are molecules tested on S. aureus R2 (assay: Staphylococcus MIC). Conditions: second Table 5 (Example 5), strain 00-42-1066.
Assay type: cell-based
Procedure: The MIC's for the compounds were determined by a modified microdilution tube dilution method described in “Methods for Dilution Antimicrobial Susceptibility Tests for Bacteria that Grow Aerobically” (National Committee for Clinical Laboratory Standards Approved Standards, 1997, NCCLS document M7-A4). In general the modifications were made because of the unique growth requirements for the fastidious oral organisms and for those bacteria that require anaerobic conditions. Reference is also made to “Methods for Antimicrobial Susceptibility of Anaerobic Bacteria” (National Committee for Clinical Laboratory Standards Approved Standards, 1997, NCCLS document M11-A4).
Briefly, the methods were as follows. Cultures were grown for 18-24hrs (aerobic bacteria) or 48-72 hrs (anaerobic bacteria) in the appropriate medium. For aerobic bacteria full strength brain heart infusion medium (BHI, Difco) was used. For anaerobic bacteria, half strength BHI (18.5 g/L) was supplemented by adding yeast extract (10 g/L), hemin (0.29 mL of a stock solution containing 0.1 g/200 mL dH2O) and menadione (15 mL of a stock solution containing 0.15 mL in 30 mL 95% EtOH) was used. Initial cultures were diluted to approximately 1×10^8 CFU/mL for use as an inoculum. Each assay received 10 μL of the inoculum. The drugs were prepared from a stock solution contained in dimethyl sulfoxide (DMSO) and diluted into the culture medium. Final concentrations of the drugs ranged from 50 to 0.05 μg/assay. The tests were run in duplicate and were incubated appropriately with regard to oxygen requirements for 24 to 48 hrs as required. Anaerobic incubation was an atmosphere of 5% CO2, 10% H2, with the balance N2. The lowest concentration of an antimicrobial agent at which no visible growth is noted was referred to as the MIC.
The S.aureus R2 species is a strain 00-42-1066 from the Children's Hospital in Buffalo. It was isolated from a wound in an individual. It was […]. The sensitivity of this strain was tested agaisnt several known antibiotics.

Row | Compound | MIC [µg/mL]
14 | O=C(c1ccc(-c2ccccc2)cc1)c1ccc(O)c(C(=O)Nc2cccc(C(F)(F)F)c2)c1 [BPAmF, reference compound] | > 50
15 | N#Cc1cccc(NC(=O)c2cc(C(=O)c3cccc4ccccc34)ccc2O)c1 [NA1mC] | 6.3 (≈ 16.1 µM)
16 | O=C(Nc1cccc(C(F)(F)F)c1)c1cc(C(=O)c2cccc3ccccc23)ccc1O [NA1mF] | 1.6 (≈ 3.67 µM)

These molecules were tested on Lact 7496 (assay: MIC microdilution, gram positive). Conditions: Lacticaseibacillus rhamnosus, 7496; Table 2, Gram Positive.
Assay type: cell-based, Lactobacillus rhamnosus (casei)
Procedure: The MIC's for the compounds were determined by a modified microdilution tube dilution method described in “Methods for Dilution Antimicrobial Susceptibility Tests for Bacteria that Grow Aerobically” (National Committee for Clinical Laboratory Standards Approved Standards, 1997, NCCLS document M7-A4). In general the modifications were made because of the unique growth requirements for the fastidious oral organisms and for those bacteria that require anaerobic conditions. Reference is also made to “Methods for Antimicrobial Susceptibility of Anaerobic Bacteria” (National Committee for Clinical Laboratory Standards Approved Standards, 1997, NCCLS document M11-A4). Briefly, the methods were as follows. Cultures were grown for 18-24hrs (aerobic bacteria) or 48-72 hrs (anaerobic bacteria) in the appropriate medium. For aerobic bacteria full strength brain heart infusion medium (BHI, Difco) was used. For anaerobic bacteria, half strength BHI (18.5 g/L) was supplemented by adding yeast extract (10 g/L), hemin (0.29 mL of a stock solution containing 0.1 g/200 mL dH2O) and menadione (15 mL of a stock solution containing 0.15 mL in 30 mL 95% EtOH) was used. Initial cultures were diluted to approximately 1×10^8 CFU/mL for use as an inoculum. Each assay received 10 μL of the inoculum. The drugs were prepared from a stock solution contained in dimethyl sulfoxide (DMSO) and diluted into the culture medium. Final concentrations of the drugs ranged from 50 to 0.05 μg/assay. The tests were run in duplicate and were incubated appropriately with regard to oxygen requirements for 24 to 48 hrs as required. Anaerobic incubation was an atmosphere of 5% CO2, 10% H2, with the balance N2. The lowest concentration of an antimicrobial agent at which no visible growth is noted was referred to as the MIC.

Row | Compound | MIC [µg/mL]
17 | O=C(c1ccc(-c2ccccc2)cc1)c1ccc(O)c(C(=O)Nc2cccc(C(F)(F)F)c2)c1 [BPAmF, reference compound] | 6.3 (≈ 13.7 µM)
18 | N#Cc1cccc(NC(=O)c2cc(C(=O)c3cccc4ccccc34)ccc2O)c1 [NA1mC] | 3.1 (≈ 7.9 µM)
19 | O=C(Nc1cccc(C(F)(F)F)c1)c1cc(C(=O)c2cccc3ccccc23)ccc1O [NA1mF] | 0.4 (≈ 0.919 µM)

What follows are molecules tested on Aa Y4 (assay: MIC microdilution, gram negative). Conditions: Aggregatibacter actinomycetemcomitans, Y4; Table 3, Gram Negative.
Assay type: cell-based, Actinobacillus actinomycetemcomitans
Procedure: The MIC's for the compounds were determined by a modified microdilution tube dilution method described in “Methods for Dilution Antimicrobial Susceptibility Tests for Bacteria that Grow Aerobically” (National Committee for Clinical Laboratory Standards Approved Standards, 1997, NCCLS document M7-A4). In general the modifications were made because of the unique growth requirements for the fastidious oral organisms and for those bacteria that require anaerobic conditions. Reference is also made to “Methods for Antimicrobial Susceptibility of Anaerobic Bacteria” (National Committee for Clinical Laboratory Standards Approved Standards, 1997, NCCLS document M11-A4). Briefly, the methods were as follows. Cultures were grown for 18-24hrs (aerobic bacteria) or 48-72 hrs (anaerobic bacteria) in the appropriate medium. For aerobic bacteria full strength brain heart infusion medium (BHI, Difco) was used. For anaerobic bacteria, half strength BHI (18.5 g/L) was supplemented by adding yeast extract (10 g/L), hemin (0.29 mL of a stock solution containing 0.1 g/200 mL dH2O) and menadione (15 mL of a stock solution containing 0.15 mL in 30 mL 95% EtOH) was used. Initial cultures were diluted to approximately 1×10^8 CFU/mL for use as an inoculum. Each assay received 10 μL of the inoculum. The drugs were prepared from a stock solution contained in dimethyl sulfoxide (DMSO) and diluted into the culture medium. Final concentrations of the drugs ranged from 50 to 0.05 μg/assay. The tests were run in duplicate and were incubated appropriately with regard to oxygen requirements for 24 to 48 hrs as required. Anaerobic incubation was an atmosphere of 5% CO2, 10% H2, with the balance N2. The lowest concentration of an antimicrobial agent at which no visible growth is noted was referred to as the MIC. […] The method used was the same as described in Example 1.

Row | Compound | MIC [µg/mL]
20 | O=C(c1ccc(-c2ccccc2)cc1)c1ccc(O)c(C(=O)Nc2cccc(C(F)(F)F)c2)c1 [BPAmF, reference compound] | > 50
21 | N#Cc1cccc(NC(=O)c2cc(C(=O)c3cccc4ccccc34)ccc2O)c1 [NA1mC] | 6.3 (≈ 16.1 µM)
22 | O=C(Nc1cccc(C(F)(F)F)c1)c1cc(C(=O)c2cccc3ccccc23)ccc1O [NA1mF] | 3.1 (≈ 7.12 µM)

Same assay, conditions: Table 3 printed a second time, Gram Negative

Row | Compound | MIC Aa Y4
23 | O=C(c1ccc(-c2ccccc2)cc1)c1ccc(O)c(C(=O)Nc2cccc(C(F)(F)F)c2)c1 [BPAmF, reference compound] | NE (NE indicates that the drug was not effective at a concentration >50 micrograms/ml)
24 | N#Cc1cccc(NC(=O)c2cc(C(=O)c3cccc4ccccc34)ccc2O)c1 [NA1mC] | 6.3 micrograms/ml
25 | O=C(Nc1cccc(C(F)(F)F)c1)c1cc(C(=O)c2cccc3ccccc23)ccc1O [NA1mF] | 3.1 micrograms/ml
